Consider 25 compounds from patent US20250009742A1 (priority 2021, published 2025).

Data set [1] in a line: Cell viability assay (EZ-Cytox), cytotoxicity. Type of data set: cell-based. As to conditions: human, HepAD38 cells; for viability at 65 h, 100 µM: read-out: Cytotoxicity % Livability (@100 μM). On the procedure:
HepAD38 cells were cultured for 2 days in Dulbecco's Modified Eagle's medium (Welgene, LM001-05) supplemented with 10% FBS without tetracycline. […] After 65 hours of treatment, viability was measured using EZ-Cytox cell viability assay kit (Daeil Lab Service) according to the manufacturer's instructions. The absorbance was measured at 450 nm using a spectrophotometer (Spark, Tecan).

The subject of data set [2] is intracellular HBV DNA. Nature of the data set: Real-time PCR for intracellular HBV DNA in HepAD38 cells. In kind it is cell-based. The following applies: Hepatitis B virus, HePAD38, 65 h, 65 hours treatment.

As for `N#Cc1cc(N(Cc2n[nH]c3c2CCCO3)C(=O)Nc2ccc(F)c(Cl)c2)ccn1` [Example 122, 3-(3-chloro-4-fluorophenyl)-1-(2-cyanopyridin-4-yl)-1-((1,4,5,6-tetrahydropyrano[2,3-c]pyrazol-3-yl)methyl)urea], in data set [1], the CC50 (in general, the concentration giving 50% cytotoxicity) at 65 h is more than 100000 nM. Besides, the IC50 (usually the concentration that inhibits the measured activity by half) in data set [2] was determined as 350 nM.

With `N#Cc1ccc(N(Cc2n[nH]c3c2COCC3)C(=O)Nc2ccc(F)c(Cl)c2)cn1` [Example 125, 3-(3-chloro-4-fluorophenyl)-1-(6-cyanopyridin-3-yl)-1-((1,4,6,7-tetrahydropyrano[4,3-c]pyrazol-3-yl)methyl)urea], in data set [1], the 50% cytotoxic concentration (CC50) at 65 h is more than 100000 nM and the viability at 65 h, 100 µM is 109%. The half-inhibitory concentration (IC50) in data set [2] came out at 230 nM.

With `N#Cc1ccc(N(Cc2n[nH]c3c2CCOC3)C(=O)Nc2ccc(F)c(Cl)c2)cn1` [Example 127, 3-(3-chloro-4-fluorophenyl)-1-(6-cyanopyridin-3-yl)-1-((1,4,5,7-tetrahydropyrano[3,4-c]pyrazol-3-yl)methyl)urea], in data set [1], the half-maximal cytotoxic concentration (CC50) at 65 h is more than 100000 nM and the viability at 65 h, 100 µM stood at 95%. In data set [2], this compound returned a half-maximal inhibitory concentration (IC50) of 510 nM.

Take `N#Cc1cc(N(Cc2n[nH]c3c2CCOC3)C(=O)Nc2ccc(F)c(Cl)c2)ccn1` [Example 128, 3-(3-chloro-4-fluorophenyl)-1-(2-cyanopyridin-4-yl)-1-((1,4,5,7-tetrahydropyrano[3,4-c]pyrazol-3-yl)methyl)urea]: in data set [1], the half-maximal cytotoxic concentration (CC50) at 65 h is more than 100000 nM and the viability at 65 h, 100 µM was found to be 65.9%. This compound also had a 50% inhibitory concentration (IC50) in data set [2] of 340 nM.

`N#Cc1cncc(N(Cc2n[nH]c3c2COCC3)C(=O)Nc2ccc(F)c(Cl)c2)c1` [Example 129, 3-(3-chloro-4-fluorophenyl)-1-(5-cyanopyridin-3-yl)-1-((1,4,6,7-tetrahydropyrano[4,3-c]pyrazol-3-yl)methyl)urea]: in data set [1], the half-maximal cytotoxic concentration (CC50) at 65 h is more than 100000 nM and the viability at 65 h, 100 µM came out at 93.1%. In addition, the IC50 in data set [2] worked out at 60 nM.

For the compound `N#Cc1ccc(N(Cc2cc(C(F)(F)F)[nH]n2)C(=O)Nc2ccc(F)c(Cl)c2)cn1` [Example 130, 3-(3-chloro-4-fluorophenyl)-1-(6-cyanopyridin-3-yl)-1-((5-(trifluoromethyl)-1H-pyrazol-3-yl)methyl)urea], in data set [1], the CC50 at 65 h is more than 100000 nM and the viability at 65 h, 100 µM came out at 68%. In addition, in data set [2], the IC50 was found to be 65 nM.

As for `O=C(Nc1ccc(F)c(Cl)c1)N(Cc1n[nH]c2c1CCCO2)c1cc[nH]n1` [Example 135, 3-(3-chloro-4-fluorophenyl)-1-(1H-pyrazol-3-yl)-1-((1,4,5,6-tetrahydropyrano[2,3-c]pyrazol-3-yl)methyl)urea], the cytotoxic concentration (CC50) at 65 h in data set [1] was more than 100000 nM. This compound gave an IC50 in data set [2] of 200 nM.

`O=C(Nc1ccc(F)c(Cl)c1)N(Cc1n[nH]c2c1CCCO2)c1ccon1` [Example 136, 3-(3-chloro-4-fluorophenyl)-1-(isoxazol-3-yl)-1-((1,4,5,6-tetrahydropyrano[2,3-c]pyrazol-3-yl)methyl)urea]: in data set [1], the 50% cytotoxic concentration (CC50) at 65 h was determined as 64000 nM and the viability at 65 h, 100 µM was found to be 7.3%. The same compound registered an IC50 in data set [2] of 48 nM.

As to `COc1ncc(N(Cc2cc(C(F)(F)F)[nH]n2)C(=O)Nc2cc(N(C)C)c(F)c(Cl)n2)cn1` [Example 138, 3-(6-chloro-4-(dimethylamino)-5-fluoropyridin-2-yl)-1-(2-methoxypyrimidin-5-yl)-1-((5-(trifluoromethyl)-1H-pyrazol-3-yl)methyl)urea], in data set [1], the 50% cytotoxic concentration (CC50) at 65 h was more than 100000 nM and the viability at 65 h, 100 µM came out at 71.9%. In data set [2], this compound had an IC50 of more than 1100 nM.

Consider `COc1ncc(N(Cc2cc(C(F)(F)F)[nH]n2)C(=O)Nc2cc(C)c(F)c(Cl)n2)cn1` [Example 142, 3-(6-chloro-5-fluoro-4-methylpyridin-2-yl)-1-(2-methoxypyrimidin-5-yl)-1-((5-(trifluoromethyl)-1H-pyrazol-3-yl)methyl)urea], for which, in data set [1], the CC50 at 65 h is 46900 nM and the viability at 65 h, 100 µM is 21%. Besides, the IC50 in data set [2] amounted to 100 nM.

In the case of `COc1ncc(N(Cc2cc(C(F)(F)F)[nH]n2)C(=O)Nc2cccc(C#N)c2)cn1` [Example 144, 3-(3-cyanophenyl)-1-(2-methoxypyrimidin-5-yl)-1-((5-(trifluoromethyl)-1H-pyrazol-3-yl)methyl)urea], in data set [1], the CC50 at 65 h is 59900 nM and the viability at 65 h, 100 µM is 6.3%. Besides, inhibition in data set [2] was half-maximal at 220 nM (IC50).

For `COc1ncc(N(Cc2cc(C(F)(F)F)[nH]n2)C(=O)Nc2cccc(C#N)n2)cn1` [Example 145, 3-(6-cyanopyridin-2-yl)-1-(2-methoxypyrimidin-5-yl)-1-((5-(trifluoromethyl)-1H-pyrazol-3-yl)methyl)urea], in data set [1], the CC50 at 65 h was more than 100000 nM and the viability at 65 h, 100 µM was found to be 99.4%. The compound further registered an IC50 in data set [2] of more than 1100 nM.

On to `COc1ncc(N(Cc2cc(C(F)(F)F)[nH]n2)C(=O)Nc2ccnc(C#N)c2)cn1` [Example 146, 3-(2-cyanopyridin-4-yl)-1-(2-methoxypyrimidin-5-yl)-1-((5-(trifluoromethyl)-1H-pyrazol-3-yl)methyl)urea], for which, in data set [1], the CC50 at 65 h is more than 100000 nM and the viability at 65 h, 100 µM was found to be 112%. This compound also came in with a 50% inhibitory concentration (IC50) in data set [2] of 120 nM.

Regarding `COc1ncc(N(Cc2cc(C(F)(F)F)[nH]n2)C(=O)Nc2cc(F)c(F)c(C#N)n2)cn1` [Example 151, 3-(6-cyano-4,5-difluoropyridin-2-yl)-1-(2-methoxypyrimidin-5-yl)-1-((5-(trifluoromethyl)-1H-pyrazol-3-yl)methyl)urea], in data set [1], the CC50 at 65 h was more than 100000 nM and the viability at 65 h, 100 µM is 87.4%. The same compound gave an IC50 in data set [2] of more than 1100 nM.

Regarding `COc1ncc(N(Cc2cc(C(F)(F)F)[nH]n2)C(=O)Nc2ccc(C#N)c(C(F)F)c2)cn1` [Example 152, 3-(4-cyano-3-(difluoromethyl)phenyl)-1-(2-methoxypyrimidin-5-yl)-1-((5-(trifluoromethyl)-1H-pyrazol-3-yl)methyl)urea], in data set [1], the half-maximal cytotoxic concentration (CC50) at 65 h is more than 100000 nM and the viability at 65 h, 100 µM stood at 82.7%. Also, inhibition in data set [2] was half-maximal at 26 nM (IC50).

On to `COc1ncc(N(Cc2cc(C#N)[nH]n2)C(=O)Nc2ccc(C#N)c(C(F)F)c2)cn1` [Example 153, 1-((5-cyano-1H-pyrazol-3-yl)methyl)-3-(4-cyano-3-(difluoromethyl)phenyl)-1-(2-methoxypyrimidin-5-yl)urea], for which, in data set [1], the CC50 at 65 h is more than 100000 nM and the viability at 65 h, 100 µM came out at 94.2%. Besides, the IC50 in data set [2] was determined as 210 nM.

`COc1ncc(N(Cc2cc(C(F)(F)F)[nH]n2)C(=O)Nc2ccc(F)c(C#N)c2)cn1` [Example 154, 3-(3-cyano-4-fluorophenyl)-1-(2-methoxypyrimidin-5-yl)-1-((5-(trifluoromethyl)-1H-pyrazol-3-yl)methyl)urea]: in data set [1], the cytotoxic concentration (CC50) at 65 h is more than 100000 nM and the viability at 65 h, 100 µM turned out to be 73%. Besides, it took 13 nM to reach half-maximal inhibition in data set [2] (IC50).

In the case of `COc1ncc(N(Cc2cc(C(F)F)[nH]n2)C(=O)Nc2ccc(F)c(C#N)c2)cn1` [Example 155, 3-(3-cyano-4-fluorophenyl)-1-((5-(difluoromethyl)-1H-pyrazol-3-yl)methyl)-1-(2-methoxypyrimidin-5-yl)urea], in data set [1], the CC50 at 65 h is more than 100000 nM and the viability at 65 h, 100 µM stood at 97%. This compound registered an IC50 in data set [2] of 35 nM.

For `COc1ncc(N(Cc2cc(C(F)(F)F)[nH]n2)C(=O)Nc2ccc(C#N)c(F)c2)cn1` [Example 156, 3-(4-cyano-3-fluorophenyl)-1-(2-methoxypyrimidin-5-yl)-1-((5-(trifluoromethyl)-1H-pyrazol-3-yl)methyl)urea], in data set [1], the CC50 at 65 h was more than 100000 nM and the viability at 65 h, 100 µM stood at 107%. For the same compound, the concentration for half-maximal inhibition (IC50) in data set [2] is 83 nM.

Consider `COc1cc(N(Cc2cc(C(F)(F)F)[nH]n2)C(=O)Nc2ccc(F)c(C#N)c2)cnn1` [Example 163, 3-(3-cyano-4-fluorophenyl)-1-(6-methoxypyridazin-4-yl)-1-((5-(trifluoromethyl)-1H-pyrazol-3-yl)methyl)urea], for which, in data set [1], the half-maximal cytotoxic concentration (CC50) at 65 h is more than 100000 nM and the viability at 65 h, 100 µM was 99%. Besides, the half-inhibitory concentration (IC50) in data set [2] turned out to be 7 nM.

For the compound `COc1ncc(N(Cc2cc(C(F)(F)F)[nH]n2)C(=O)Nc2cc(N(C)C)c(F)c(C#N)n2)cn1` [Example 164, 3-(6-cyano-4-(dimethylamino)-5-fluoropyridin-2-yl)-1-(2-methoxypyrimidin-5-yl)-1-((5-(trifluoromethyl)-1H-pyrazol-3-yl)methyl)urea], in data set [1], the CC50 at 65 h was more than 100000 nM and the viability at 65 h, 100 µM worked out at 100%. Moreover, the IC50 in data set [2] was more than 1100 nM.

`COc1ccc(N(Cc2cc(C(F)(F)F)[nH]n2)C(=O)Nc2ccc(F)c(F)c2)cn1` [Example 168, 3-(3,4-difluorophenyl)-1-(6-methoxypyridin-3-yl)-1-((5-(trifluoromethyl)-1H-pyrazol-3-yl)methyl)urea]: in data set [1], the CC50 at 65 h was more than 100000 nM and the viability at 65 h, 100 µM turned out to be 59.8%. In data set [2], this compound registered a half-inhibitory concentration (IC50) of 73 nM.

`COc1ncc(N(Cc2cc(C(F)(F)F)[nH]n2)C(=O)Nc2cc(F)c(F)cn2)cn1` [Example 172, 3-(4,5-difluoropyridin-2-yl)-1-(2-methoxypyrimidin-5-yl)-1-((5-(trifluoromethyl)-1H-pyrazol-3-yl)methyl)urea] had a CC50 at 65 h in data set [1] of more than 100000 nM. 240 nM corresponded to half-maximal inhibition in data set [2] (IC50).

`COc1ncc(N(Cc2cc(C(F)(F)F)[nH]n2)C(=O)Nc2nccc(F)c2F)cn1` [Example 173, 3-(3,4-difluoropyridin-2-yl)-1-(2-methoxypyrimidin-5-yl)-1-((5-(trifluoromethyl)-1H-pyrazol-3-yl)methyl)urea] had a cytotoxic concentration (CC50) at 65 h in data set [1] of more than 100000 nM. In addition, the concentration for half-maximal inhibition (IC50) in data set [2] was more than 1100 nM.

On to `COc1ncc(N(Cc2cc(C(F)(F)F)[nH]n2)C(=O)Nc2cncc(C(F)F)c2)cn1` [Example 174, 3-(5-(difluoromethyl)pyridin-3-yl)-1-(2-methoxypyrimidin-5-yl)-1-((5-(trifluoromethyl)-1H-pyrazol-3-yl)methyl)urea], for which, in data set [1], the CC50 at 65 h was more than 100000 nM and the viability at 65 h, 100 µM came out at 96.2%. The compound further came in with an IC50 in data set [2] of 480 nM.
